Results published in PubChem BioAssay AID1259407 (Chemical Carcinogenesis Research Information System (CCRIS), 2018).
Activity calls are given as the source filed them. No rule for the calls is given here.

Test system: CCRIS mutagenicity, Ames/micronucleus/aberration tests
Assay: CCRIS mutagenicity studies

Q: For CNNCc1ccc(C(=O)NC(C)C)cc1, which mutagenic call (Test System: AMES SALMONELLA TYPHIMURIUM, Strain/Indicator: TA97, Metabolic Activation: HAMSTER, LIVER, S-9, AROCLOR 1254 (10 OR 30%), Method: PREINCUBATION) is on record?
A: The mutagenic call was “inactive; negative”.

Q: And the mutagenic call (Test System: AMES SALMONELLA TYPHIMURIUM, Strain/Indicator: TA97, Metabolic Activation: NONE, Method: PREINCUBATION)?
A: The mutagenic call was “inactive; negative”.

Q: What about the mutagenic call (Test System: AMES SALMONELLA TYPHIMURIUM, Strain/Indicator: TA97, Metabolic Activation: RAT, LIVER, S-9, AROCLOR 1254 (10 OR 30%), Method: PREINCUBATION) of the same compound?
A: The mutagenic call was “inactive; negative”.

Q: And the mutagenic call (Test System: AMES SALMONELLA TYPHIMURIUM, Strain/Indicator: TA98, Metabolic Activation: HAMSTER, LIVER, S-9, AROCLOR 1254 (10 OR 30%), Method: PREINCUBATION)?
A: The mutagenic call was “inactive; negative”.

Q: What about the mutagenic call (Test System: AMES SALMONELLA TYPHIMURIUM, Strain/Indicator: TA98, Metabolic Activation: NONE, Method: PREINCUBATION) of the same compound?
A: Its mutagenic call is “inactive; negative”.

Q: What about the mutagenic call (Test System: AMES SALMONELLA TYPHIMURIUM, Strain/Indicator: TA98, Metabolic Activation: NONE, Method: STANDARD PLATE) of the same compound?
A: Its mutagenic call is “inactive; negative”.

Q: What about the mutagenic call (Test System: AMES SALMONELLA TYPHIMURIUM, Strain/Indicator: TA98, Metabolic Activation: RAT, LIVER, S-9, AROCLOR 1254 (10 OR 30%), Method: PREINCUBATION) of the same compound?
A: The mutagenic call was “inactive; negative”.

Q: What about the mutagenic call (Test System: AMES SALMONELLA TYPHIMURIUM, Strain/Indicator: TA98, Metabolic Activation: S-9, Method: PREINCUBATION) of the same compound?
A: Its mutagenic call is “inactive; negative”.

Q: And the mutagenic call (Test System: AMES SALMONELLA TYPHIMURIUM, Strain/Indicator: TA98, Metabolic Activation: S-9, Method: STANDARD PLATE)?
A: Its mutagenic call is “inactive; negative”.

Q: What about the mutagenic call (Test System: AMES SALMONELLA TYPHIMURIUM, Strain/Indicator: TA100, Metabolic Activation: HAMSTER, LIVER, S-9, AROCLOR 1254 (10 OR 30%), Method: PREINCUBATION) of the same compound?
A: Its mutagenic call is “inactive; negative”.

Q: What about the mutagenic call (Test System: AMES SALMONELLA TYPHIMURIUM, Strain/Indicator: TA100, Metabolic Activation: NONE, Method: PREINCUBATION) of the same compound?
A: The mutagenic call was “inactive; negative”.

Q: What about the mutagenic call (Test System: AMES SALMONELLA TYPHIMURIUM, Strain/Indicator: TA100, Metabolic Activation: NONE, Method: STANDARD PLATE) of the same compound?
A: Its mutagenic call is “inactive; negative”.

Q: What about the mutagenic call (Test System: AMES SALMONELLA TYPHIMURIUM, Strain/Indicator: TA100, Metabolic Activation: RAT, LIVER, S-9, AROCLOR 1254 (10 OR 30%), Method: PREINCUBATION) of the same compound?
A: Its mutagenic call is “inactive; negative”.

Q: And the mutagenic call (Test System: AMES SALMONELLA TYPHIMURIUM, Strain/Indicator: TA100, Metabolic Activation: RAT, LIVER, S-9, PYRAZOLE, Method: PREINCUBATION)?
A: Its mutagenic call is “inactive; negative”.

Q: And the mutagenic call (Test System: AMES SALMONELLA TYPHIMURIUM, Strain/Indicator: TA100, Metabolic Activation: S-9, Method: PREINCUBATION)?
A: The mutagenic call was “inactive; negative”.

Q: And the mutagenic call (Test System: AMES SALMONELLA TYPHIMURIUM, Strain/Indicator: TA100, Metabolic Activation: S-9, Method: STANDARD PLATE)?
A: The mutagenic call was “inactive; negative”.

Q: What about the mutagenic call (Test System: AMES SALMONELLA TYPHIMURIUM, Strain/Indicator: TA1530 (PKM101), Metabolic Activation: RAT, LIVER, S-9, ETHANOL, Method: PREINCUBATION) of the same compound?
A: The mutagenic call was “inactive; negative”.

Q: And the mutagenic call (Test System: AMES SALMONELLA TYPHIMURIUM, Strain/Indicator: TA1530 (PKM101), Metabolic Activation: RAT, LIVER, S-9, PYRAZOLE, Method: PREINCUBATION)?
A: The mutagenic call was “inactive; negative”.

Q: What about the mutagenic call (Test System: AMES SALMONELLA TYPHIMURIUM, Strain/Indicator: TA1535, Metabolic Activation: HAMSTER, LIVER, S-9, AROCLOR 1254 (10 OR 30%), Method: PREINCUBATION) of the same compound?
A: Its mutagenic call is “inactive; negative”.

Q: What about the mutagenic call (Test System: AMES SALMONELLA TYPHIMURIUM, Strain/Indicator: TA1535, Metabolic Activation: NONE, Method: PREINCUBATION) of the same compound?
A: The mutagenic call was “inactive; negative”.

Q: What about the mutagenic call (Test System: AMES SALMONELLA TYPHIMURIUM, Strain/Indicator: TA1535, Metabolic Activation: RAT, LIVER, S-9, AROCLOR 1254 (10 OR 30%), Method: PREINCUBATION) of the same compound?
A: Its mutagenic call is “inactive; negative”.

Q: What about the mutagenic call (Test System: AMES SALMONELLA TYPHIMURIUM, Strain/Indicator: TA1535, Metabolic Activation: RAT, LIVER, S-9, PYRAZOLE, Method: PREINCUBATION) of the same compound?
A: Its mutagenic call is “inactive; negative”.

Q: What about the mutagenic call (Test System: AMES SALMONELLA TYPHIMURIUM, Strain/Indicator: TA1537, Metabolic Activation: HAMSTER, LIVER, S-9, AROCLOR 1254 (10 OR 30%), Method: PREINCUBATION) of the same compound?
A: The mutagenic call was “inactive; negative”.

Q: And the mutagenic call (Test System: AMES SALMONELLA TYPHIMURIUM, Strain/Indicator: TA1537, Metabolic Activation: NONE, Method: PREINCUBATION)?
A: The mutagenic call was “inactive; negative”.

Q: And the mutagenic call (Test System: AMES SALMONELLA TYPHIMURIUM, Strain/Indicator: TA1537, Metabolic Activation: RAT, LIVER, S-9, AROCLOR 1254 (10 OR 30%), Method: PREINCUBATION)?
A: The mutagenic call was “inactive; negative”.

Q: And the mutagenic call (Test System: CHINESE HAMSTER OVARY, Strain/Indicator: CHO-K1-BH4 (HGPRT), Metabolic Activation: RAT, LIVER, S-9, AROCLOR, Method: SUSPENSION/PLATE)?
A: The mutagenic call was “active; positive”.

Q: And the mutagenic call (Test System: CHINESE HAMSTER V-79, Strain/Indicator: V-79/6-THIOGUANINE, Metabolic Activation: NONE, Method: CELL-MEDIATED)?
A: The mutagenic call was “active; positive”.

Q: And the mutagenic call (Test System: CHINESE HAMSTER V-79, Strain/Indicator: V-79/6-THIOGUANINE, Metabolic Activation: RAT, LIVER, HEPATOCYTES, AROCLOR 1254, Method: CELL-MEDIATED)?
A: Its mutagenic call is “active; positive”.

Q: And the mutagenic call (Test System: CHINESE HAMSTER V-79, Strain/Indicator: V-79/6-THIOGUANINE, Metabolic Activation: RAT, LIVER, HEPATOCYTES, Method: CELL-MEDIATED)?
A: The mutagenic call was “active; positive”.

Q: What about the mutagenic call (Test System: CHINESE HAMSTER V-79, Strain/Indicator: V-79/6-THIOGUANINE, Metabolic Activation: RAT, LIVER, S-9, AROCLOR 1254, Method: CELL-MEDIATED) of the same compound?
A: Its mutagenic call is “active; positive”.

Q: And the mutagenic call (Test System: CHINESE HAMSTER V-79, Strain/Indicator: V-79/6-THIOGUANINE, Metabolic Activation: RAT, LIVER, S-9, Method: CELL-MEDIATED)?
A: The mutagenic call was “active; positive”.

Q: And the mutagenic call (Test System: E. COLI, Strain/Indicator: WP2 (HCR), Metabolic Activation: NONE, Method: STANDARD PLATE)?
A: The mutagenic call was “inactive; negative”.

Q: And the mutagenic call (Test System: E. COLI, Strain/Indicator: WP2 (HCR), Metabolic Activation: S-9, Method: STANDARD PLATE)?
A: The mutagenic call was “inactive; negative”.

Q: What about the mutagenic call (Test System: E. COLI, Strain/Indicator: WP2 (PKM101), Metabolic Activation: RAT, LIVER, S-9, PYRAZOLE, Method: PREINCUBATION) of the same compound?
A: The mutagenic call was “inactive; negative”.

Q: What about the mutagenic call (Test System: E. COLI, Strain/Indicator: WP2 UVRA (PKM101), Metabolic Activation: RAT, LIVER, S-9, PYRAZOLE, Method: PREINCUBATION) of the same compound?
A: Its mutagenic call is “inactive; negative”.

Q: What about the mutagenic call (Test System: E. COLI, Strain/Indicator: WP2 UVRA, Metabolic Activation: HAMSTER, LIVER, S-9, AROCLOR 1254, Method: STANDARD PLATE) of the same compound?
A: The mutagenic call was “inactive; negative”.

Q: And the mutagenic call (Test System: E. COLI, Strain/Indicator: WP2 UVRA, Metabolic Activation: HAMSTER, LIVER, S-9, Method: STANDARD PLATE)?
A: The mutagenic call was “inactive; negative”.

Q: And the mutagenic call (Test System: E. COLI, Strain/Indicator: WP2 UVRA, Metabolic Activation: MOUSE, LIVER, S-9, AROCLOR 1254, Method: STANDARD PLATE)?
A: The mutagenic call was “inactive; negative”.

Q: What about the mutagenic call (Test System: E. COLI, Strain/Indicator: WP2 UVRA, Metabolic Activation: MOUSE, LIVER, S-9, Method: STANDARD PLATE) of the same compound?
A: The mutagenic call was “inactive; negative”.

Q: And the mutagenic call (Test System: E. COLI, Strain/Indicator: WP2 UVRA, Metabolic Activation: NONE, Method: STANDARD PLATE)?
A: The mutagenic call was “inactive; negative”.

Q: What about the mutagenic call (Test System: E. COLI, Strain/Indicator: WP2 UVRA, Metabolic Activation: RAT, LIVER, S-9, AROCLOR 1254, Method: STANDARD PLATE) of the same compound?
A: Its mutagenic call is “inactive; negative”.

Q: And the mutagenic call (Test System: E. COLI, Strain/Indicator: WP2 UVRA, Metabolic Activation: RAT, LIVER, S-9, Method: STANDARD PLATE)?
A: Its mutagenic call is “inactive; negative”.

Q: And the mutagenic call (Test System: MOUSE LYMPHOMA, Strain/Indicator: L5178Y (HGPRT), Metabolic Activation: NONE, Method: SUSPENSION/PLATE)?
A: The mutagenic call was “active; positive”.

Q: What about the mutagenic call (Test System: MOUSE LYMPHOMA, Strain/Indicator: L5178Y (TK+/TK-), Metabolic Activation: NONE, Method: MICROWELL) of the same compound?
A: Its mutagenic call is “active; positive”.

Q: What about the mutagenic call (Test System: MOUSE LYMPHOMA, Strain/Indicator: L5178Y (TK+/TK-), Metabolic Activation: NONE, Method: MINIWELL) of the same compound?
A: The mutagenic call was “active; positive”.

Q: What about the mutagenic call (Test System: MOUSE LYMPHOMA, Strain/Indicator: L5178Y (TK+/TK-), Metabolic Activation: RAT, LIVER, S-9, AROCLOR 1242 AND 1254 (2:1), Method: SUSPENSION/PLATE) of the same compound?
A: The mutagenic call was “active; positive”.

Q: What about the mutagenic call (Test System: MOUSE LYMPHOMA, Strain/Indicator: L5178Y (TK+/TK-), Metabolic Activation: RAT, LIVER, S-9, AROCLOR 1254, Method: SUSPENSION/PLATE) of the same compound?
A: The mutagenic call was “active; positive”.
